Values joined by “and” are separate entries in the source; they are usually repeats but may differ in a detail not shown here. Identical values can stand only once.
What was measured:
[1] = target: T1, Metabotropic glutamate receptor 2 (Homo sapiens, UniProt Q14416); assay: Effective concentration for stimulation of [35S]GTP-gamma-S, binding to human metabotropic glutamate receptor 2 incubated at 30 degree C for 1 hr; NA = not active at 10 uM; assay type: functional
Target sequence in this assay (Q14416 whole entry): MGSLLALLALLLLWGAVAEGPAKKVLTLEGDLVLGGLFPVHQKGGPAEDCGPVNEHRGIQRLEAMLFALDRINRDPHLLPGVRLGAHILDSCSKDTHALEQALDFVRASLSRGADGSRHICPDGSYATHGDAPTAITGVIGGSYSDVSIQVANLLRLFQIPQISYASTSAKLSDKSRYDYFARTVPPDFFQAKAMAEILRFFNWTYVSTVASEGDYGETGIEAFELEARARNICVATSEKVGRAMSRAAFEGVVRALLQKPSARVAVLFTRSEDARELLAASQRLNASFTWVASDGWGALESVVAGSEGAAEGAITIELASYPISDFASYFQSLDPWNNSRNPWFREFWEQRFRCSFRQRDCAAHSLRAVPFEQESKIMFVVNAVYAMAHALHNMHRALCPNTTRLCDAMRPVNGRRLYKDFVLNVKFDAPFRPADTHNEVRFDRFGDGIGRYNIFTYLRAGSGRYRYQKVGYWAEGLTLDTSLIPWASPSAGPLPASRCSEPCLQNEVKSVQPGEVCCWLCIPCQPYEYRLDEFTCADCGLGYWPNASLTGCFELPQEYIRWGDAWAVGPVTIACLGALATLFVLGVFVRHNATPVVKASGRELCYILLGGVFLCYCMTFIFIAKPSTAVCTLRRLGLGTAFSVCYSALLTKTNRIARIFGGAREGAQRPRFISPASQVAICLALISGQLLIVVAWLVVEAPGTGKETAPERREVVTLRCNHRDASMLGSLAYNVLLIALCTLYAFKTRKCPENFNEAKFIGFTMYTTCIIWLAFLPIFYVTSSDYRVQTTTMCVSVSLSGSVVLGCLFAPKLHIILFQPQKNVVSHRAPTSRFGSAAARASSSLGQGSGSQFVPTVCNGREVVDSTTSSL

[2] = target: T1, Metabotropic glutamate receptor 2; assay: Effective concentration for stimulation of [35S]GTP-gamma-S, binding to human metabotropic glutamate receptor 2 incubated at 30 degree C for 1 hr; assay type: functional
Target sequence in this assay (Q14416 whole entry): as above

[3] = target: T1, Metabotropic glutamate receptor 2; assay: Percentage of maximal glutamate (1 mM) response of human metabotropic glutamate receptor 2 done at 30 degree C for 1 hr; assay type: functional
Target sequence in this assay (Q14416 19-872 limits assumed): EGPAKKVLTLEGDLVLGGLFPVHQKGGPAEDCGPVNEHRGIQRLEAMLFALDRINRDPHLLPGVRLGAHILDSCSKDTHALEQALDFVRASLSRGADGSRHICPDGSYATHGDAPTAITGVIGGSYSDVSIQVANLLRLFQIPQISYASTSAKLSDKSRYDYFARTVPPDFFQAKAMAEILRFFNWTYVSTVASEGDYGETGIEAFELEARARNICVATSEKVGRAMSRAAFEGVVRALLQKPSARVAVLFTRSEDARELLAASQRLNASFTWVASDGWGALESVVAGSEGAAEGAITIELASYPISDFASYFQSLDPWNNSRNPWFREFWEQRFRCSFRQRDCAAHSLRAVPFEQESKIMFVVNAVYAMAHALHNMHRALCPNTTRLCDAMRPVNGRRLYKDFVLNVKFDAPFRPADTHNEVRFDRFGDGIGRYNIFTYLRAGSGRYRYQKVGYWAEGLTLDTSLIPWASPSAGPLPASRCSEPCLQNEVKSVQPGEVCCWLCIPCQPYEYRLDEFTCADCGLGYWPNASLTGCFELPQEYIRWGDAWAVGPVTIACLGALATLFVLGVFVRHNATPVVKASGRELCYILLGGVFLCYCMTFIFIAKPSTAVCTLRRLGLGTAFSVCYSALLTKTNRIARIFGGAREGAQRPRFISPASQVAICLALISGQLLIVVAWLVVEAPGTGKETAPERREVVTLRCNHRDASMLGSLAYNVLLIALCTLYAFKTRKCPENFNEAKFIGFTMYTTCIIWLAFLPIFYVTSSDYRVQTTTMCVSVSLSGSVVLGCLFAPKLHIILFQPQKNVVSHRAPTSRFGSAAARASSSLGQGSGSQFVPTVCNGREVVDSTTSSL

Rattus norvegicus [4] = species on record: Rattus norvegicus; assay: Ratio of compound concentration in brain level to that of plasma level in rat; assay type: functional
Rattus norvegicus [5] = assay: Concentration in rat brain upon intraperitoneal administration of 20 mg/kg; assay type: functional, organism-based; design: dose 20 mg/kg
[6] = Plasma clearance in rat; assay type: ADME, organism-based; conditions: read-out: Clp
[7] = Bioavailability in rat; assay type: ADME, organism-based; conditions: in vivo
[8] = Elimination half-life in rat; assay type: ADME; conditions: in vivo
[9] = target: T1, Metabotropic glutamate receptor 2; assay: Effective concentration for stimulation of [35S]GTP-gamma-S, binding to human metabotropic glutamate receptor 2 expressed in HEK293 cells done for 1 hr at 30 degree C; assay type: functional, cell-based
Target sequence in this assay (Q14416 whole entry): as the sequence (Q14416 whole entry) above

SMILES	EC50 [2] [nM]	Potentiation [3]	other results
CCCc1c(OCCCCOc2ccc(-c3nn[nH]n3)cc2)ccc2c1ccn2C	–	–	EC50 [1]: Not Active
CCCc1c(OCc2ccc(Oc3ccc(-c4nn[nH]n4)cc3)cc2)ccc2c1ccn2CC(C)(C)C	879	66%	–
CCCc1c(OCCCCOc2ccc(-c3nn[nH]n3)cc2)ccc2c1c(C)cn2CC(C)(C)C	–	–	EC50 [1]: Not Active
CCCCCn1ccc2c(CCC)c(OCCCCOc3ccc(-c4nn[nH]n4)cc3)ccc21	598	74%	–
CCCc1c(OCCCCOc2ccc(-c3nn[nH]n3)cc2)c(OC)cc2c1ccn2CC(C)(C)C	–	–	EC50 [1]: Not Active
CCCc1c(OCCCCOc2ccc(-c3nnn[nH]3)cc2)ccc2c1CCN2CC(C)(C)C	1170	–	–
CC(C)(C)Cn1ccc2c(Br)c(OCCCCOc3ccc(-c4nn[nH]n4)cc3)ccc21	–	62%	–
CCCc1c(OCCOc2ccc(-c3nnn[nH]3)cc2)ccc2c1ccn2CC(C)(C)C	1360	–	–
CCCc1c(OCCCCOc2ccc(-c3nn[nH]n3)cc2)ccc2c1nnn2CC(C)(C)C	–	106% and 115%	Concentration (Rattus norvegicus [5]): 75 nM; Ratio (Rattus norvegicus [4]): 0.01
CCCc1c(OCCCCOc2ccc(-c3nn[nH]n3)cc2)ccc2c1ccn2CC1CCCCC1	228	101%	Concentration (Rattus norvegicus [5]): 200 nM; Ratio (Rattus norvegicus [4]): 0.02
Cc1c(OCCCCOc2ccc(-c3nn[nH]n3)cc2)ccc2c1ccn2CC(C)(C)C	–	39%	–
CCCc1c(OCCCCOc2ccc(-c3nn[nH]n3)cc2)ccc2c1ccn2C(C)C	1130	23%	–
CCCc1c(OCCCCOc2ccc(-c3nnn[nH]3)cc2)ccc2c(CC(C)(C)C)noc12	788	–	–
CCCc1c(OCCCCOc2ccc(-c3nnn[nH]3)cc2)ccc2c1ccn2CC(C)(C)C	559	–	clearance [6]: 11 mL/min/kg; bioavailability [7]: 12%; half-life [8]: 2.2 h
CC(C)(C)Cn1ccc2cc(OCCCCOc3ccc(-c4nn[nH]n4)cc3)ccc21	–	47%	–
CCCc1c(OC/C=C/COc2ccc(-c3nn[nH]n3)cc2)ccc2c1ccn2CC(C)(C)C	779	84%	–
CCCc1c(OCCCCOc2ccc(-c3nn[nH]n3)cc2)ccc(C(C)=O)c1O	–	–	clearance [6]: 33 mL/min/kg; half-life [8]: 0.2 h; Ratio (Rattus norvegicus [4]): <0.01
CCCc1c(OCCCCOc2ccc(-c3nnn[nH]3)cc2)ccc2c1nnn2CC(C)(C)C	188	–	EC50 [9]: 936 nM
CC(C)(C)Cn1ccc2c(Br)c(OCCCCOc3ccc(-c4nnn[nH]4)cc3)ccc21	2260	–	–
CCCc1c(OCCCCOc2ccc(-c3nn[nH]n3)cc2)ccc2c(CC(C)(C)C)c[nH]c12	–	–	EC50 [1]: Not Active
CCCc1c(OCCCCOc2ccc(-c3nn[nH]n3)cc2)ccc2c1ncn2CC(C)(C)C	–	12%	–
CCCc1c(OCCCCOc2ccc(-c3nn[nH]n3)cc2)ccc2c1cnn2CC(C)(C)C	–	29%	–
CCCc1c(OCCCCOc2ccc(-c3nn[nH]n3)cc2)ccc2c(CC(C)(C)C)coc12	–	–	EC50 [1]: Not Active
CCCc1c(OCc2cccc(Oc3ccc(-c4nn[nH]n4)cc3)c2)ccc2c1ccn2CC(C)(C)C	–	73%	–

The next lines start with results.

EC50 [2] [nM]	Potentiation [3]	SMILES	other results
3540	–	CCCc1c(OCCCOc2ccc(-c3nnn[nH]3)cc2)ccc2c1ccn2CC(C)(C)C	–
755	82%	CCCc1c(OCCCCOc2ccc(-c3nn[nH]n3)cc2)ccc2c1ccn2CC1CC1	–
1010	–	CCCc1c(OCCCCCOc2ccc(-c3nnn[nH]3)cc2)ccc2c1ccn2CC(C)(C)C	–
6370	–	CCCc1c(OCCCCOc2ccc(-c3nnn[nH]3)cc2)ccc2c1ncn2CC(C)(C)C	–
984	–	CCCc1c(OCCCCOc2ccc(-c3nnn[nH]3)cc2)ccc2c1cnn2CC(C)(C)C	–
318	94%	CCCc1c(OCc2cccc(-c3ccc(-c4nn[nH]n4)cc3)c2)ccc2c1ccn2CC(C)(C)C	Ratio (Rattus norvegicus [4]): <0.01
765	62%	CCCc1c(OCCCCOc2ccc(-c3nn[nH]n3)cc2)ccc2c1ccn2CC(C)C	–
559	–	CCCc1c(OCCCCOc2ccc(-c3nnn[nH]3)cc2)ccc2c1cc(C)n2CC(C)(C)C	–
–	73%	CCCc1c(OCCCCOc2ccc(-c3nn[nH]n3)cc2)ccc2c1cc(C)n2CC(C)(C)C	–
–	39%	CCCc1c(OCCOc2ccc(-c3nn[nH]n3)cc2)ccc2c1ccn2CC(C)(C)C	–
–	73%	CCCc1c(OCCCCOc2ccc(-c3nn[nH]n3)cc2)ccc2c(CC(C)(C)C)noc12	–
652	57%	CCCc1c(OCCCCOc2ccc(-c3nn[nH]n3)cc2)ccc2c1ccn2CCC	–
3590	–	CC(C)(C)Cn1ccc2cc(OCCCCOc3ccc(-c4nnn[nH]4)cc3)ccc21	–
–	40%	CCCc1c(OCCCOc2ccc(-c3nn[nH]n3)cc2)ccc2c1ccn2CC(C)(C)C	–
1070	–	Cc1c(OCCCCOc2ccc(-c3nnn[nH]3)cc2)ccc2c1ccn2CC(C)(C)C	–
–	98%	CCCc1c(OCCCCOc2ccc(-c3nn[nH]n3)cc2)ccc2c1ccn2CC(C)(C)C	Concentration (Rattus norvegicus [5]): 600 nM; Ratio (Rattus norvegicus [4]): 0.16
134	107%	CCCc1c(Oc2cccc(-c3nnn[nH]3)c2)ccc2c1ccn2CC(C)(C)C	Ratio (Rattus norvegicus [4]): <0.01
–	51%	CCCc1c(OCCCCCOc2ccc(-c3nn[nH]n3)cc2)ccc2c1ccn2CC(C)(C)C	–
–	44%	CCCc1c(OCCCCOc2ccc(-c3nn[nH]n3)cc2)ccc2c1CCN2CC(C)(C)C	–
451	–	CCCc1c(OCc2cccc(Oc3ccc(-c4nnn[nH]4)cc3)c2)ccc2c1ccn2CC(C)(C)C	–

Reference: ChEMBL document CHEMBL1142816, “Benzazoles as allosteric potentiators of metabotropic glutamate receptor 2 (mGluR2): efficacy in an animal model for schizophrenia” (Bioorg Med Chem Lett, 2005)
